Values after ≈ are worked out from the molar mass of the structure shown.
Columns and labels:
human (hACC2) = human (hACC2) (Homo sapiens, UniProt O00763); assay: In vitro ACC inhibition assay (ADP-Glo), hACC2; type: biochemical; conditions: Table 2b, additional results, 5 nM ACC2, 20 μM ATP, 20 μM acetyl-CoA
Experimental: The detailed procedure is as follows. […] 10 μL ADP glo reagent was added. […] 20 μL kinase detection reagent was added.

C. albicans = assay: Antifungal Activity Assay (broth microtiter MIC), C. albicans; type: cell-based, Candida albicans; conditions: Candida albicans, ATCC90028, 48 h, Table 3b (additional results); ATCC 90028; 3 replicates; MIC recorded at 48 h; read-out: MIC, C. albicans ATCC 90028
In short: (§1)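 MIC read by eye at 48 h, comparing challenged wells with the growth control. Yeasts grown overnight on Sabouraud dextrose agar at 35° C, suspended in RPMI 1640+MOPS and added at 2.5×10^3 CFU/mL final, following CLSI M27-A3.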

C. krusei = assay: Antifungal Activity Assay (broth microtiter MIC), C. krusei; type: cell-based, Candida krusei; conditions: Pichia kudriavzevii, ATCC6258, 48 h, Table 3b (additional results); ATCC 6258; 3 replicates; MIC recorded at 48 h; read-out: MIC, C. krusei ATCC 6258
In short: as §1

C. parapsilosis = assay: Antifungal Activity Assay (broth microtiter MIC), C. parapsilosis; type: cell-based, Candida parapsilosis; conditions: Lodderomyces parapsilosis, ATCC22019, 48 h, Table 3b (additional results); ATCC 22019; 3 replicates; MIC recorded at 48 h; read-out: MIC, C. parapsilosis ATCC 22019
In short: as §1

Botrtyis cinerea (Bc) = assay: Growth inhibition assay of fungal pathogens, Bc; type: cell-based; conditions: 48 h, Botrtyis cinerea; growth inhibition at 48 hours vs 2% DMSO control; read-out: Concentration at 90% Inhibition Bc
Experimental: (§2) Compounds of the present invention were evaluated in a growth inhibition assay to determine the ability to control the growth of fungal pathogens, such as Botrtyis cinerea (Bc), Collectotrichum graminicola (Cg), Diplodia maydis (Dm), Fusarium moniliforme (Fm), Fusarium virguliforme (Fv), Phytophthora capsici (Pc), Rhizoctonia solani (Rs), and Septoria tritici (St).
(§3) Compounds to be tested were dissolved in DMSO at 2.5 mg/ml to produce compound stock solutions (“stocks”). Stocks were diluted with DMSO by a five-fold dilution in a 96-well stock plate, and two sets of final concentrations of 50, 10, and 2 ppm or 2, 0.4, and 0.08 ppm were obtained in vitro. A set of positive controls was also prepared, with various concentrations of Soraphen (2, 0.4, and 0.08 ppm), Metalaxyl (1.1, 0.22, and 0.04 ppm), and Metconazole (2, 0.4, and 0.08 ppm or 0.2, 0.04, and 0.008 ppm) after the five-fold dilutions. Negative controls on each plate included 2% DMSO, water, and a blank (media+2% DMSO).
(§4) Fungal spores were isolated from previously sub-cultured plates of Botrtyis cinerea (Bc), Collectotrichum graminicola (Cg), Diplodia maydis (Dm), Fusarium moniliforme (Fm), Fusarium virguliforme (Fv), Phytophthora capsici (Pc), and Septoria tritici (St). The isolated spores were diluted to individual concentrations with a 17% V8 liquid media. For Rhizoctonia solani (Rs) and Pythium irregulare, 1.5 mm mycelial plugs were used in place of spores and/4 Potato Dextrose Broth (PDB) was used for dilution. The spore concentrations and plug sizes were based on growth curves generated at 48 hours for each pathogen.
(§5) In a second 96-well plate, the spores or mycelial plugs, media, diluted compound solutions, and controls were combined. Once the compound was added, a true final concentration of compound in each well was measured by an OD600 reading, which adjusted for any compound precipitation that might have occurred in the well. Plate readings were repeated at both 24 and 48 hours. The blank negative control was used as a background subtraction. Additional visual ratings were performed at both 24 and 48 hours for checking on precipitation and confirming efficacy. Visual and OD600 ratings of the compounds at 48 hours were compared to the 2% DMSO negative control, and the percent of pathogen growth inhibition was determined based on those values.

[1] = tested on: Collectotrichum graminicola (Cg); assay: Growth inhibition assay of fungal pathogens, Cg; type: cell-based; conditions: 48 h, Collectotrichum graminicola; growth inhibition at 48 hours vs 2% DMSO control; read-out: Concentration at 90% Inhibition Cg
Experimental: as §2, §3, §4, §5

Diplodia maydis (Dm) = assay: Growth inhibition assay of fungal pathogens, Dm; type: cell-based; conditions: Stenocarpella maydis, 48 h, Diplodia maydis; growth inhibition at 48 hours vs 2% DMSO control; read-out: Concentration at 90% Inhibition Dm
Experimental: as §2, §3, §4, §5

[2] = tested on: Fusarium moniliforme (Fm); assay: Growth inhibition assay of fungal pathogens, Fm; type: cell-based; conditions: Fusarium verticillioides, 48 h, Fusarium moniliforme; growth inhibition at 48 hours vs 2% DMSO control; read-out: Concentration at 90% Inhibition Fm
Experimental: as §2, §3, §4, §5

[3] = tested on: Fusarium virguliforme (Fv); assay: Growth inhibition assay of fungal pathogens, Fv; type: cell-based; conditions: 48 h, growth inhibition at 48 hours vs 2% DMSO control, read-out: Concentration at 90% Inhibition Fv
Experimental: as §2, §3, §4, §5

[4] = tested on: Phytophthora capsici (Pc); assay: Growth inhibition assay of fungal pathogens, Pc; type: cell-based; conditions: 48 h, growth inhibition at 48 hours vs 2% DMSO control, read-out: Concentration at 90% Inhibition Pc
Experimental: as §2, §3, §4, §5

Rhizoctonia solani (Rs) = assay: Growth inhibition assay of fungal pathogens, Rs; type: cell-based; conditions: 48 h, mycelial plugs, growth inhibition at 48 hours vs 2% DMSO control, read-out: Concentration at 90% Inhibition Rs
Experimental: as §2, §3, §4, §5

Septoria tritici (St) = assay: Growth inhibition assay of fungal pathogens, St; type: cell-based; conditions: Zymoseptoria tritici, 48 h, Septoria tritici; growth inhibition at 48 hours vs 2% DMSO control; read-out: Concentration at 90% Inhibition St
Experimental: as §2, §3, §4, §5

fungal (fACC2) = fungal (fACC2) (UniProt Q00955); conditions: read-out: fACC2 (in vitro ACC2 Inhibition Assay, IC50); Table 2b, additional results; ADP-Glo, 5 nM ACC2, 20 μM ATP, 20 μM acetyl-CoA
Chain of fungal (fACC2) (Q00955 whole entry): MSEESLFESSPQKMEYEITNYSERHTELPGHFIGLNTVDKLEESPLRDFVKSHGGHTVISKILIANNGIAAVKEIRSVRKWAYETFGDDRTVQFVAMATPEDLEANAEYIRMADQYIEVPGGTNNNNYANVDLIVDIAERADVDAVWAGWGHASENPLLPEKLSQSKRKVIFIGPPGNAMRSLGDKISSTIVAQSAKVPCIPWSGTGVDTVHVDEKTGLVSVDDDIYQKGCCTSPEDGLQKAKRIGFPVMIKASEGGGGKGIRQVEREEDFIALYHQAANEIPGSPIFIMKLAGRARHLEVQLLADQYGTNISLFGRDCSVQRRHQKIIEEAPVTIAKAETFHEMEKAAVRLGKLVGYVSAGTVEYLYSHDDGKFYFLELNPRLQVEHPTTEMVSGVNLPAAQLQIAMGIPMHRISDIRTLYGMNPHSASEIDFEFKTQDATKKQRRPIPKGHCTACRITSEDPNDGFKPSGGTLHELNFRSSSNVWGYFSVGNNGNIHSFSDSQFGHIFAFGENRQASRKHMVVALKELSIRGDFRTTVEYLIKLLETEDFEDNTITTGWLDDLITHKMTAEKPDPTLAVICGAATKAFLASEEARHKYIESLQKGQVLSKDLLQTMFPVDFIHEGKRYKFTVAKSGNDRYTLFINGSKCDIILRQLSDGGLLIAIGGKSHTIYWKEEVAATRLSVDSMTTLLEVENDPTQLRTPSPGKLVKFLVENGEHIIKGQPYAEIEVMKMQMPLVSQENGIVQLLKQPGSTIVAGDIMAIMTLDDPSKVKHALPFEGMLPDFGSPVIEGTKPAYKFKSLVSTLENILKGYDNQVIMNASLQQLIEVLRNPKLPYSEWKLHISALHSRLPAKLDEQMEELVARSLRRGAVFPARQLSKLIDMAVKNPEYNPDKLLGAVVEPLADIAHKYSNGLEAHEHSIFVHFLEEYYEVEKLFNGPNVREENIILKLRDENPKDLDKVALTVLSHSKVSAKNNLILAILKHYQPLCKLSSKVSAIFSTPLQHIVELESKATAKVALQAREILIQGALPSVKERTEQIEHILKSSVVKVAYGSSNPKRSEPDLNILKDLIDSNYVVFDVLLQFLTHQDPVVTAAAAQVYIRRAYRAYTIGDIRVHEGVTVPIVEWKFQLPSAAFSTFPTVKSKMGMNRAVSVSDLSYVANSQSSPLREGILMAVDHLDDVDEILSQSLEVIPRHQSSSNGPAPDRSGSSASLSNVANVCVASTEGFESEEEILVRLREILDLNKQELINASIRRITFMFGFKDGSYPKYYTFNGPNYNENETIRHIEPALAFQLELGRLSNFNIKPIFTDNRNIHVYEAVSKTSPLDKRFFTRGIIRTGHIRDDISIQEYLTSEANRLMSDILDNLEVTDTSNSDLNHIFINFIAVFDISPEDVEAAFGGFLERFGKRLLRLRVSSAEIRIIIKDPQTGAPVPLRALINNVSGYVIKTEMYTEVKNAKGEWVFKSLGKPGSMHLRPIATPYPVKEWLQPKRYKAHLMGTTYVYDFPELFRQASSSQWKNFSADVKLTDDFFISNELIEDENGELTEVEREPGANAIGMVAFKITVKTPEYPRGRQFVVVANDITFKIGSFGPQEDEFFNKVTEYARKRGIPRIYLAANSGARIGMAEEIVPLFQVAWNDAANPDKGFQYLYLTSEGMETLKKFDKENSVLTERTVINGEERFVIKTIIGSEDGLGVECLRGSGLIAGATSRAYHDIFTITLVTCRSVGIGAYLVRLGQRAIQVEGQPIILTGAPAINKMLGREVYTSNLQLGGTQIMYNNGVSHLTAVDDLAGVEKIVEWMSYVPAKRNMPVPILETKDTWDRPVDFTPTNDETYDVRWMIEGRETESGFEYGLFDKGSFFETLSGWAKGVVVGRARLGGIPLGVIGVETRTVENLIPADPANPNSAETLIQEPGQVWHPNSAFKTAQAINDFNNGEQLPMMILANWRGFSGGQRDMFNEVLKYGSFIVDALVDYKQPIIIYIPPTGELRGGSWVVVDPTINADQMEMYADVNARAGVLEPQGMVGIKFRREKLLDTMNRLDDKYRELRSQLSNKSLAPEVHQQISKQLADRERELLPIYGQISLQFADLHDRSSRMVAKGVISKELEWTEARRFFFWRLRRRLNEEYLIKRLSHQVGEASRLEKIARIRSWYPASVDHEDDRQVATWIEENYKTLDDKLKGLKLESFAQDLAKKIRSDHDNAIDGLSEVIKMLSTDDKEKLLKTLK

Chain of human (hACC2) (O00763 whole entry): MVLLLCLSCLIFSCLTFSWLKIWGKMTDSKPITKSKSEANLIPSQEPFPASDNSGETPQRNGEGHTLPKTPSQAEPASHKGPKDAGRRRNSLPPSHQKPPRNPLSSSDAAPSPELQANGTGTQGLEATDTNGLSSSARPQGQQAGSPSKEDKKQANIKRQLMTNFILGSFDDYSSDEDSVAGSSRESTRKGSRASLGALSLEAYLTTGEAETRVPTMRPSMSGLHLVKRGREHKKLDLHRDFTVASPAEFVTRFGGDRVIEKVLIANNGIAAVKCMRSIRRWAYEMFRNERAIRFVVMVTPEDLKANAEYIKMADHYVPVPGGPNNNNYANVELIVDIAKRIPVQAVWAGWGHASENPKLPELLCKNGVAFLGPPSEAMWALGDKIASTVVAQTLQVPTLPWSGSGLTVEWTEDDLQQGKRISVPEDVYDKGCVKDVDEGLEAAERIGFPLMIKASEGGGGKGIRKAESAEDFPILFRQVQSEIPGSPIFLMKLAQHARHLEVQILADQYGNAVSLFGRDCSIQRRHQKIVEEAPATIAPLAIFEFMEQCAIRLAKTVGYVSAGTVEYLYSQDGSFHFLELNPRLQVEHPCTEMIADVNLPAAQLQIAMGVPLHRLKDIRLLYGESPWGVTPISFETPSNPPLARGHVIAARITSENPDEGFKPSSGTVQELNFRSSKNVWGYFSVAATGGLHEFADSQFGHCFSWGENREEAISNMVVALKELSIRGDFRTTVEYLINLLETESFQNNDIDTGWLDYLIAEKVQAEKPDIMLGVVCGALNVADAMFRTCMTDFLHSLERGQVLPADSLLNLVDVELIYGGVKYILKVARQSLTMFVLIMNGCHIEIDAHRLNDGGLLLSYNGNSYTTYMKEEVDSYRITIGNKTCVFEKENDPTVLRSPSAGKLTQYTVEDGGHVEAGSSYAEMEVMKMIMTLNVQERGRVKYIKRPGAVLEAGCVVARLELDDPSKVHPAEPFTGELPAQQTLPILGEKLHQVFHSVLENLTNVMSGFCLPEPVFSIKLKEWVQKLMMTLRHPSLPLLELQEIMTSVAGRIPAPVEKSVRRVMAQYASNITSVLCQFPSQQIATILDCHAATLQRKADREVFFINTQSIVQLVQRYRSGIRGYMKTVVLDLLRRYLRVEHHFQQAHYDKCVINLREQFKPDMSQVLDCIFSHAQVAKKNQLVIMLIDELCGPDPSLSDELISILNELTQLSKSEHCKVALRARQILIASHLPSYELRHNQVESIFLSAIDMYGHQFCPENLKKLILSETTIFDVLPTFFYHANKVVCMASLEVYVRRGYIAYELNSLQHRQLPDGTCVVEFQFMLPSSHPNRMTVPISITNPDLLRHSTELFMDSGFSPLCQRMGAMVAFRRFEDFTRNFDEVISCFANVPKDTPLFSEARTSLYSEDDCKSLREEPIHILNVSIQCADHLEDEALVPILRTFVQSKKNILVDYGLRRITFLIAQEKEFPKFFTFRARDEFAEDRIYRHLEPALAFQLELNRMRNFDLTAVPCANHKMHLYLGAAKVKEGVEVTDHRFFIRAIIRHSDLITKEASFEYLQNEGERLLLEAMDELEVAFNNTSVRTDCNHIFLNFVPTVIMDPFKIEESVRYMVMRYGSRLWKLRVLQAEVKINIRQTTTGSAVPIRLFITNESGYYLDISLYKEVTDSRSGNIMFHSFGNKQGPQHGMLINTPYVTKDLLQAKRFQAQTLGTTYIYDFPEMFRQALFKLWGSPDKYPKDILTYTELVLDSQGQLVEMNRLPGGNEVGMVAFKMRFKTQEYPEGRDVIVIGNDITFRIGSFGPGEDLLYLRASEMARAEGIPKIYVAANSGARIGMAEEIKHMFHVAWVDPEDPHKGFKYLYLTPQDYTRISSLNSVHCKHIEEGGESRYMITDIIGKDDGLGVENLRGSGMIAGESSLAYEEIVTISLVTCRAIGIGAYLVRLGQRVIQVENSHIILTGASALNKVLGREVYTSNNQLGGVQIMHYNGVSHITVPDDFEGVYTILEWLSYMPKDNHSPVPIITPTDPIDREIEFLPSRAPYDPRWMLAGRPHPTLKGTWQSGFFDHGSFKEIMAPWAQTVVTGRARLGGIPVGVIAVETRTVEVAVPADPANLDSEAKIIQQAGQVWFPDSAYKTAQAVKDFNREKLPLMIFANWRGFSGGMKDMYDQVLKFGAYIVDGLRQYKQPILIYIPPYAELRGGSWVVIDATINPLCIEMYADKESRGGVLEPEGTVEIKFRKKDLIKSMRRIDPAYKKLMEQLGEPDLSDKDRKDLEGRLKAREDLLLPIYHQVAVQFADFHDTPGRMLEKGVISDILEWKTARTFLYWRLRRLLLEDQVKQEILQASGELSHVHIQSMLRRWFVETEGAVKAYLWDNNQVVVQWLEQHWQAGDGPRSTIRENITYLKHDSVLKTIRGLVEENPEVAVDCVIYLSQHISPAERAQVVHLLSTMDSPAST

Row | IC50 (human (hACC2)) [nM] | MIC (C. albicans) [µg/mL] | MIC (C. krusei) [µg/mL] | MIC (C. parapsilosis) [µg/mL] | Structure (SMILES) | IC90 (Botrtyis cinerea (Bc)) [µg/mL] | IC90 [1] [µg/mL] | IC90 (Diplodia maydis (Dm)) [µg/mL] | IC90 [2] [µg/mL] | IC90 [3] [µg/mL] | IC90 [4] [µg/mL] | IC90 (Rhizoctonia solani (Rs)) [µg/mL] | IC90 (Septoria tritici (St)) [µg/mL] | IC50 (fungal (fACC2)) [nM]
1 | 10 to 40 | 1.01 to 2 (≈ 1.88 to 3.71 µM) | 1.01 to 2 (≈ 1.88 to 3.71 µM) | 1.01 to 2 (≈ 1.88 to 3.71 µM) | COc1ccccc1[C@@H](O)Cn1c(=O)n(C(C)(C)C(=O)N2CCCC2)c(=O)c2c(C)c(-n3nccn3)sc21 [Compound I-189] | 10 (≈ 18.6 µM) | > 50 | > 50 | 10 (≈ 18.6 µM) | 10 (≈ 18.6 µM) | > 50 | 0.08 (≈ 0.149 µM) | > 50 | –
2 | 5 to 10 | 1.01 to 2 (≈ 1.87 to 3.7 µM) | 1.01 to 2 (≈ 1.87 to 3.7 µM) | 1.01 to 2 (≈ 1.87 to 3.7 µM) | COc1ccc(F)cc1[C@@H](O)Cn1c(=O)n([C@@H](C)C(=O)N2CC=CC2)c(=O)c2c(C)c(-n3nccn3)sc21 [Compound I-193] | 10 (≈ 18.5 µM) | 10 (≈ 18.5 µM) | > 50 | 2 (≈ 3.7 µM) | 2 (≈ 3.7 µM) | > 50 | 2 (≈ 3.7 µM) | > 50 | –

Row | Structure (SMILES) | IC50 (human (hACC2)) [nM] | MIC (C. albicans) [µg/mL] | MIC (C. krusei) [µg/mL] | MIC (C. parapsilosis) [µg/mL] | IC90 (Botrtyis cinerea (Bc)) [µg/mL] | IC90 [1] [µg/mL] | IC90 (Diplodia maydis (Dm)) [µg/mL] | IC90 [2] [µg/mL] | IC90 [3] [µg/mL] | IC90 [4] [µg/mL] | IC90 (Rhizoctonia solani (Rs)) [µg/mL] | IC90 (Septoria tritici (St)) [µg/mL] | IC50 (fungal (fACC2)) [nM]
3 | COc1ccc(F)cc1[C@@H](Cn1c(=O)n(C(C)(C)C(=O)NC(C)C)c(=O)c2c(C)c(-n3nccn3)sc21)OC(C)=O [Compound I-259] | 5 to 10 | – | – | – | 0.4 (≈ 0.682 µM) | 0.4 (≈ 0.682 µM) | 0.4 (≈ 0.682 µM) | 0.08 (≈ 0.136 µM) | 0.08 (≈ 0.136 µM) | > 50 | 0.08 (≈ 0.136 µM) | > 50 | 1 to 5

— patent publication US10800791B2, “Triazole ACC inhibitors and uses thereof” (Gilead Apollo, LLC, priority 2015, dated 2020)
